Results as given in PubChem BioAssay AID2060493 (Molecular Pharmacology Branch, DTP, NCI, 2025).

Test system: 616215-338-R-J1-PDC tumor spheroids, viability
Assay: Anticancer human tumor 616215-338-R-J1-PDC patient-derived colon adenocarcinoma cell line growth inhibition [GQUAD]
Settings: spheroids with HUVEC and MSC; for IC50: curve of first compound; for viability, T/C: stronger effect = lower value
Outline: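 Multi-cell-type spheroids of tumor cells with HUVEC and mesenchymal stem cells, treated with drug combinations. Concentrations descend in half-log steps from near clinical Cmax, or from 10 microM where Cmax is unknown; viability read-out.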

[1] = second compound 0.0316 µM, first compound 0.0316 µM
[2] = second compound 0.0316 µM, first compound 0.1 µM
[3] = second compound 0.0316 µM, first compound 0.316 µM
[4] = second compound 0.0316 µM, first compound 1 µM
[5] = second compound 0.0316 µM, first compound 3.16 µM
[6] = second compound 0.0316 µM, first compound 10 µM
[7] = second compound 0.1 µM, first compound 0.0316 µM
[8] = second compound 0.1 µM, first compound 0.1 µM
[9] = second compound 0.1 µM, first compound 0.316 µM
[10] = second compound 0.1 µM, first compound 1 µM
[11] = second compound 0.1 µM, first compound 3.16 µM
[12] = second compound 0.1 µM, first compound 10 µM
[13] = second compound 0.316 µM, first compound 0.0316 µM
[14] = second compound 0.316 µM, first compound 0.1 µM
[15] = second compound 0.316 µM, first compound 0.316 µM
[16] = second compound 0.316 µM, first compound 1 µM
[17] = second compound 0.316 µM, first compound 3.16 µM
[18] = second compound 0.316 µM, first compound 10 µM
[19] = second compound 1 µM, first compound 0.0316 µM
[20] = second compound 1 µM, first compound 0.1 µM
[21] = second compound 1 µM, first compound 0.316 µM
[22] = second compound 1 µM, first compound 1 µM
[23] = second compound 1 µM, first compound 3.16 µM
[24] = second compound 1 µM, first compound 10 µM
[25] = second compound 3.16 µM, first compound 0.0316 µM
[26] = second compound 3.16 µM, first compound 0.1 µM
[27] = second compound 3.16 µM, first compound 0.316 µM
[28] = second compound 3.16 µM, first compound 1 µM
[29] = second compound 3.16 µM, first compound 3.16 µM
[30] = second compound 3.16 µM, first compound 10 µM
[31] = second compound 10 µM, first compound 0.0316 µM
[32] = second compound 10 µM, first compound 0.1 µM
[33] = second compound 10 µM, first compound 0.316 µM
[34] = second compound 10 µM, first compound 1 µM
[35] = second compound 10 µM, first compound 3.16 µM
[36] = second compound 10 µM, first compound 10 µM
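Also: spheroids exposed to agents for 7 days before readout.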
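For viability, T/C in this document: percent viability relative to DMSO vehicle control wells taken as 100%.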

Work on C=CC(=O)N1CCN(c2nc(=O)n(-c3c(C)ccnc3C(C)C)c3nc(-c4c(O)cccc4F)c(F)cc23)C(C)C1 (stereo unspecified) + Cc1cnc(CNC(=O)c2c(=O)c3ccc(N4CCCN(C)CC4)nc3n3c2sc2ccccc23)cn1 yielded an IC50 (second compound 0.0316 µM) of over 10000 nM, an IC50 (second compound 0.1 µM) of over 10000 nM and an IC50 (second compound 0.316 µM) of 938 nM. It also gave an IC50 (second compound 1 µM) of under 31.6 nM, an IC50 (second compound 3.16 µM) of under 31.6 nM and an IC50 (second compound 10 µM) of under 31.6 nM. For the same molecule, the viability, T/C [1] was 106%, the viability, T/C [2] was 109% and the viability, T/C [3] was 99.1%. For the same molecule, the viability, T/C [4] was 95.9%, the viability, T/C [5] was 89.2% and the viability, T/C [6] was 63.7%. It also gave a viability, T/C [7] of 79.8%, a viability, T/C [8] of 73.9% and a viability, T/C [9] of 43.4%. The viability, T/C [10] was 64%, the viability, T/C [11] was 94.5% and the viability, T/C [12] was 48.5%. The viability, T/C [13] was 43.1%, the viability, T/C [14] was 69.1% and the viability, T/C [15] was 62.8%. It also gave a viability, T/C [16] of 49.5%, a viability, T/C [17] of 43.8% and a viability, T/C [18] of 47.6%. For the same molecule, the viability, T/C [19] was 30.9%, the viability, T/C [20] was 41% and the viability, T/C [21] was 38.5%. For the same molecule, the viability, T/C [22] was 34.4%, the viability, T/C [23] was 38% and the viability, T/C [24] was 41.8%. It also gave a viability, T/C [25] of 30.6%, a viability, T/C [26] of 36.6% and a viability, T/C [27] of 32.9%. The viability, T/C [28] was 26.6%, the viability, T/C [29] was 37% and the viability, T/C [30] was 42.5%. The viability, T/C [31] was 30.9%, the viability, T/C [32] was 28.6% and the viability, T/C [33] was 26%. It also gave a viability, T/C [34] of 35.2%, a viability, T/C [35] of 34.4% and a viability, T/C [36] of 24.2%.
In the case of CC(C)n1c(=O)n(C)c2cnc3cc(F)c(-c4ccc(OCCCN5CCCCC5)nc4)cc3c21 + Cc1cnc(CNC(=O)c2c(=O)c3ccc(N4CCCN(C)CC4)nc3n3c2sc2ccccc23)cn1, the IC50 (second compound 0.0316 µM) is reported as 5420 nM, the IC50 (second compound 0.1 µM) is reported as 31.6 nM and the IC50 (second compound 0.316 µM) is reported as under 31.6 nM. The IC50 (second compound 1 µM) was under 31.6 nM, the IC50 (second compound 3.16 µM) was under 31.6 nM and the IC50 (second compound 10 µM) was under 31.6 nM. The viability, T/C [1] was 82%, the viability, T/C [2] was 62% and the viability, T/C [3] was 47.6%. For the same molecule, the viability, T/C [4] was 69.5%, the viability, T/C [5] was 64% and the viability, T/C [6] was 33.9%. The viability, T/C [7] was 48.3%, the viability, T/C [8] was 48.5% and the viability, T/C [9] was 52.2%. The viability, T/C [10] was 34%, the viability, T/C [11] was 36.9% and the viability, T/C [12] was 28.8%. It also gave a viability, T/C [13] of 40.6%, a viability, T/C [14] of 43.3% and a viability, T/C [15] of 53.8%. It also gave a viability, T/C [16] of 38.5%, a viability, T/C [17] of 46.8% and a viability, T/C [18] of 13.4%. For the same molecule, the viability, T/C [19] was 28.3%, the viability, T/C [20] was 36.1% and the viability, T/C [21] was 29.9%. For the same molecule, the viability, T/C [22] was 28.2%, the viability, T/C [23] was 34.3% and the viability, T/C [24] was 30.5%. It also gave a viability, T/C [25] of 22.5%, a viability, T/C [26] of 25.6% and a viability, T/C [27] of 32.1%. It also gave a viability, T/C [28] of 23.2%, a viability, T/C [29] of 26.9% and a viability, T/C [30] of 8.45%. For the same molecule, the viability, T/C [31] was 31.1%, the viability, T/C [32] was 41.4% and the viability, T/C [33] was 19.9%. The viability, T/C [34] was 31.9%, the viability, T/C [35] was 24.1% and the viability, T/C [36] was 19.2%.
CC1COCCN1c1cc(-c2ccnn2C)c2ccnc(-c3ccn[nH]3)c2n1 (stereo unspecified) + Cc1cnc(CNC(=O)c2c(=O)c3ccc(N4CCCN(C)CC4)nc3n3c2sc2ccccc23)cn1 was tested, and the IC50 (second compound 0.0316 µM) was under 31.6 nM, the IC50 (second compound 0.1 µM) was under 31.6 nM and the IC50 (second compound 0.316 µM) was under 31.6 nM. For the same molecule, the IC50 (second compound 1 µM) was under 31.6 nM, the IC50 (second compound 3.16 µM) was under 31.6 nM and the IC50 (second compound 10 µM) was under 31.6 nM. The viability, T/C [1] was 49.5%, the viability, T/C [2] was 29.5% and the viability, T/C [3] was 31.4%. It also gave a viability, T/C [4] of 24.8%, a viability, T/C [5] of 25.9% and a viability, T/C [6] of 21.4%. For the same molecule, the viability, T/C [7] was 42.5%, the viability, T/C [8] was 35.8% and the viability, T/C [9] was 29.2%. For the same molecule, the viability, T/C [10] was 25.7%, the viability, T/C [11] was 23.7% and the viability, T/C [12] was 20.7%. For the same molecule, the viability, T/C [13] was 28.4%, the viability, T/C [14] was 32.1% and the viability, T/C [15] was 26%. For the same molecule, the viability, T/C [16] was 28.5%, the viability, T/C [17] was 37.4% and the viability, T/C [18] was 24.8%. It also gave a viability, T/C [19] of 30.6%, a viability, T/C [20] of 29.8% and a viability, T/C [21] of 31.9%. For the same molecule, the viability, T/C [22] was 24%, the viability, T/C [23] was 19.6% and the viability, T/C [24] was 17.9%. It also gave a viability, T/C [25] of 28.8%, a viability, T/C [26] of 22.4% and a viability, T/C [27] of 25.8%. The viability, T/C [28] was 24.4%, the viability, T/C [29] was 22.5% and the viability, T/C [30] was 17%. The viability, T/C [31] was 30.2%, the viability, T/C [32] was 22.7% and the viability, T/C [33] was 23%. It also gave a viability, T/C [34] of 19.7%, a viability, T/C [35] of 24.2% and a viability, T/C [36] of 19.3%.
